Measurements reported in the CheMixHub viscosity set.

Test: xn = mol fraction of the nth substance listed

CC(CC(C)(C)C)CC(C)(C)C + Cc1cc(C)cc(C)c1
viscosity [mPa·s], 102 kPa
Details	x2 = 0.1002	x2 = 0.2001	x2 = 0.3009	x2 = 0.4006	x2 = 0.4977	x2 = 0.6	x2 = 0.7	x2 = 0.8001	x2 = 0.9001
293.15 K	1.22	1.13	1.05	0.972	0.908	0.848	0.805	0.761	0.727
303.15 K	1.03	0.96	0.893	0.837	0.789	0.738	0.697	0.658	0.63
313.15 K	0.892	0.831	0.782	0.732	0.691	0.65	0.614	0.58	0.555
323.15 K	0.781	0.738	0.693	0.649	0.613	0.578	0.546	0.517	0.494

CC(CC(C)(C)C)CC(C)(C)C + Cc1ccc(C)c(C)c1
viscosity [mPa·s], 102 kPa
Details	x2 = 0.0923	x2 = 0.2008	x2 = 0.3004	x2 = 0.4003	x2 = 0.4979	x2 = 0.5999	x2 = 0.7003	x2 = 0.7999	x2 = 0.8992
293.15 K	1.24	1.16	1.09	1.03	0.975	0.93	0.891	0.864	0.848
303.15 K	1.05	0.981	0.926	0.882	0.845	0.808	0.776	0.75	0.736
313.15 K	0.906	0.855	0.813	0.774	0.739	0.709	0.679	0.657	0.647
323.15 K	0.789	0.749	0.716	0.683	0.652	0.625	0.602	0.582	0.573

CN(C)c1ccccc1 + Cc1ccccc1
viscosity [mPa·s], 101 kPa
Details	x1 = 0.1011	x1 = 0.1961	x1 = 0.3125	x1 = 0.4011	x1 = 0.493	x1 = 0.5974	x1 = 0.701	x1 = 0.8015	x1 = 0.8983
298.15 K	0.597	0.653	0.711	0.767	0.831	0.906	0.989	1.066	1.173
303.15 K	0.561	0.604	0.668	0.714	0.77	0.834	0.911	0.988	1.07
308.15 K	0.532	0.57	0.625	0.671	0.726	0.782	0.854	0.918	0.999
313.15 K	0.499	0.536	0.586	0.619	0.664	0.726	0.78	0.851	0.914

[2H]O[2H] + Cc1cccnc1
viscosity [mPa·s], 101 kPa
Details	x2 = 0.0233	x2 = 0.05084	x2 = 0.08428	x2 = 0.1255
297.15 K	1.471	1.954	2.315	2.706
298.15 K	1.433	1.899	2.249	2.627
299.15 K	1.389	1.846	2.189	2.558
300.15 K	1.355	1.794	2.122	2.483
301.15 K	1.32	1.751	2.059	2.401
302.15 K	1.284	1.7	1.999	2.33
303.15 K	1.254	1.656	1.949	2.267
304.15 K	1.225	1.615	1.893	2.2
305.15 K	1.191	1.578	1.843	2.14
306.15 K	1.165	1.538	1.793	2.083
307.15 K	1.136	1.502	1.751	2.033
308.15 K	1.104	1.467	1.708	1.981
309.15 K	1.082	1.434	1.665	1.932
310.15 K	1.055	1.404	1.631	1.889
311.15 K	1.034	1.371	1.589	1.841
312.15 K	1.007	1.344	1.555	1.804
313.15 K	0.984	1.32	1.522	1.765
